Assay results from patent publication US6147100A, “Pyrrolidine derivatives having phospholipase A2 inhibitory activity” (Shionogi & Co., Ltd., priority 1997, dated 2000).

Assays:
[1] = test system: production of prostaglandin E2 by human fibroblasts; test: Inhibition of Production of Prostaglandin E2 in Human Fibroblasts (IL-1 stimulation); format: cell-based; details: Fibroblast; human fibroblasts under stimulation with IL-1
Procedure: Test Example 2 Inhibition of Production of Prostaglandin E2 in Human Fibroblasts.
In order to examine the availability of the composition for inhibiting cytosolic phospholipase A2 (cPLA2) on the cells, the compounds of the present invention were tested for the effect on the production of prostaglandin E2 by human fibroblasts under the stimulation with IL-1 according to the method of J. M. Dayer et al (CACHECTIN/TUMOR NECROSIS FACTOR STIMULATES COLLAGENASE AND PROSTAGLANDIN E2 PRODUCTION BY HUMAN SYNOVIAL CELLS AND DERMAL FIBROBLASTS; J. M. Dayer, B, Beutler and A, Cerami, J. EXP. Med., 1985, 162, 2163-2168.).

[2] = biological target: T1, cPLA2 (Homo sapiens, UniProt P47712); test: cPLA2 Inhibitory Activity; format: biochemical; details: 1-palmitoyl-2-[14C]-arachidonoyl-sn-glycero-3-phosphocholine 2.5 μM, sn-1,2-dioleoylglycerol 1.25 μM; pH 7.5, 15 min at 37° C.
T1 sequence (P47712 1-749): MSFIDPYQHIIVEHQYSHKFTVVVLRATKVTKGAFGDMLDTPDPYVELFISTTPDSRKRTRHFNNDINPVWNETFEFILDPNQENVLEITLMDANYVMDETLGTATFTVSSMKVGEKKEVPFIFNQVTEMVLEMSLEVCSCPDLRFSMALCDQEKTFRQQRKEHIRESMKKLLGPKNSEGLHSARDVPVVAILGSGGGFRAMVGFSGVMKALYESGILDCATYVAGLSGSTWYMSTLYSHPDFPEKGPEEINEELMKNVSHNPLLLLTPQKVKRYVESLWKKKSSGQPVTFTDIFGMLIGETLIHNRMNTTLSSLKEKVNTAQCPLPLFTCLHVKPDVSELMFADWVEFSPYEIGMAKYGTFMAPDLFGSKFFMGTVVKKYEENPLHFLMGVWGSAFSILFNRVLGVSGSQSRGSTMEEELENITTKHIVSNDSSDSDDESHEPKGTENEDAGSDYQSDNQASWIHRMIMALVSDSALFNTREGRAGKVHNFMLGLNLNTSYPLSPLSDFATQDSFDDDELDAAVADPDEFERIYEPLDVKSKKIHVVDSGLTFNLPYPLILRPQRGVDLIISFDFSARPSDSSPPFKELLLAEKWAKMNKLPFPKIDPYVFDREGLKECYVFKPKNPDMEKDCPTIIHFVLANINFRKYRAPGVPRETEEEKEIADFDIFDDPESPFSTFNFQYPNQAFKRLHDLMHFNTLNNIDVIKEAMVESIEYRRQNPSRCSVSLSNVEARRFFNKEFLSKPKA
Procedure, shortened: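 Radiometric assay in 50 mM HEPES pH 7.5 with 1 mM CaCl2, 150 mM NaCl, 0.1 mg/ml BSA and 1.7 mM DTT; compound and substrate added, reaction started with enzyme, 15 min at 37° C. Released fatty acids extracted (Dole method), counted by liquid scintillation versus no-compound control.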

Row | SMILES | IC50 [1] | IC50 [2]
1 | COc1ccccc1-c1ccccc1CO[C@@H]1C[C@@H](CNC(=O)c2ccc(/C=C3\SC(=O)NC3=O)cc2)N(C(=O)c2ccccc2C(=O)c2ccc(F)cc2)C1 [Compound A-41] | 1200 nM | 56 nM
2 | CN(Cc1ccccc1)c1ccccc1CO[C@@H]1C[C@@H](CNC(=O)c2ccc(/C=C3\SC(=O)NC3=O)cc2)N(C(=O)c2ccccc2C(=O)c2ccc(F)cc2)C1 [Compound A-43] | 560 nM | 52 nM
3 | O=C1NC(=O)/C(=C/c2ccc(C(=O)NC[C@@H]3C[C@@H](OCc4ccccc4-c4cccc(C(F)(F)F)c4)CN3C(=O)c3ccccc3C(=O)c3ccc(F)cc3)cc2)S1 [Compound A-44] | 550 nM | 57 nM
4 | O=C1NC(=O)/C(=C/c2ccc(C(=O)NC[C@@H]3C[C@@H](OCc4ccccc4-c4cccc([N+](=O)[O-])c4)CN3C(=O)c3ccccc3C(=O)c3ccc(F)cc3)cc2)S1 [Compound A-45] | 380 nM | 74 nM
5 | O=C1NC(=O)/C(=C/c2ccc(C(=O)NC[C@@H]3C[C@@H](OCc4ccccc4Oc4ccccc4)CN3C(=O)c3ccccc3C(=O)c3ccc(F)cc3)cc2)S1 [Compound A-48] | 620 nM | 90 nM
6 | O=C1NC(=O)C(=C/C=C/c2ccc(C(=O)NC[C@@H]3C[C@@H](OCc4ccccc4-c4ccccc4)CN3C(=O)c3ccccc3C(=O)c3ccc(F)cc3)cc2)S1 [Compound A-49] | 120 nM | 49 nM
7 | O=C(/C=C/c1ccc(/C=C2\SC(=O)NC2=O)cc1)NC[C@@H]1C[C@@H](OCc2ccccc2-c2ccccc2)CN1C(=O)c1ccccc1C(=O)c1ccc(F)cc1 [Compound A-52] | 620 nM | 53 nM
8 | O=C1NC(=O)/C(=C/c2ccc(C(=O)NC[C@@H]3C[C@@H](OCc4ccccc4-c4ccccc4)CN3C(=O)c3ccccc3C(=O)c3ccc(F)cc3)s2)S1 [Compound A-58] | 1600 nM | 49 nM
9 | O=C1NC(=S)S/C1=C\c1ccc(C(=O)NC[C@@H]2C[C@@H](OCc3ccccc3-c3ccccc3)CN2C(=O)c2ccccc2C(=O)c2ccc(F)cc2)s1 [Compound A-59] | 940 nM | 47 nM
10 | O=C1NC(=O)/C(=C/c2ccc(S(=O)(=O)NC[C@@H]3C[C@@H](OCc4ccccc4-c4ccccc4)CN3C(=O)c3ccccc3C(=O)c3ccc(F)cc3)s2)S1 [Compound A-60] | 1300 nM | 1300 nM
11 | O=C1NC(=O)/C(=C/c2ccc(S(=O)(=O)NC[C@@H]3C[C@@H](OCc4ccccc4-c4ccccc4)CN3C(=O)c3ccccc3C(=O)c3ccc(F)cc3)cc2)S1 [Compound A-62] | 1100 nM | 260 nM
12 | O=C1NC(=O)/C(=C/c2ccc(C(=O)NC[C@@H]3C[C@@H](Oc4ccccc4-c4ccccc4)CN3C(=O)c3ccccc3C(=O)c3ccc(F)cc3)cc2)S1 [Compound A-67] | 390 nM | 69 nM
13 | O=C1NC(=O)/C(=C/c2ccc(C(=O)NC[C@@H]3C[C@@H](Oc4cccc(-c5ccccc5)c4)CN3C(=O)c3ccccc3C(=O)c3ccc(F)cc3)cc2)S1 [Compound A-69] | 190 nM | 72 nM
14 | O=C1NC(=O)/C(=C/c2ccc(C(=O)NC[C@@H]3C[C@@H](Oc4ccc(-c5ccccc5)cc4)CN3C(=O)c3ccccc3C(=O)c3ccc(F)cc3)cc2)S1 [Compound A-70] | 190 nM | 90 nM
15 | O=C1NC(=O)/C(=C/c2ccc(C(=O)NC[C@@H]3C[C@@H](Oc4ccc5ccccc5c4)CN3C(=O)c3ccccc3C(=O)c3ccc(F)cc3)cc2)S1 [Compound A-71] | 310 nM | 190 nM
16 | O=C1NC(=O)/C(=C/c2ccc(C(=O)NC[C@@H]3C[C@@H](Oc4cccc5ccccc45)CN3C(=O)c3ccccc3C(=O)c3ccc(F)cc3)cc2)S1 [Compound A-73] | 100 nM | 110 nM
17 | CC(C)(C)c1ccccc1O[C@@H]1C[C@@H](CNC(=O)c2ccc(/C=C3\SC(=O)NC3=O)cc2)N(C(=O)c2ccccc2C(=O)c2ccc(F)cc2)C1 [Compound A-75] | 2200 nM | 190 nM
18 | O=C1NC(=O)/C(=C/c2ccc(C(=O)NC[C@@H]3C[C@@H](Oc4ccccc4C4CCCC4)CN3C(=O)c3ccccc3C(=O)c3ccc(F)cc3)cc2)S1 [Compound A-76] | 520 nM | 72 nM

Row | SMILES | IC50 [1] | IC50 [2]
19 | O=C1NC(=O)/C(=C/c2ccc(C(=O)NC[C@@H]3C[C@@H](Oc4cccc5c4CCCC5)CN3C(=O)c3ccccc3C(=O)c3ccc(F)cc3)cc2)S1 [Compound A-77] | 350 nM | 100 nM
20 | O=C1NC(=O)/C(=C/c2ccc(C(=O)NC[C@@H]3C[C@@H](Oc4ccc5cc(-c6ccccc6)ccc5c4)CN3C(=O)c3ccccc3C(=O)c3ccc(F)cc3)cc2)S1 [Compound A-79] | 310 nM | 20 nM
21 | O=C1NC(=O)/C(=C/c2ccc(C(=O)NC[C@@H]3C[C@@H](Oc4cc(-c5ccccc5)c5ccccc5c4)CN3C(=O)c3ccccc3C(=O)c3ccc(F)cc3)cc2)S1 [Compound A-81] | 350 nM | 53 nM
22 | O=C1NC(=O)/C(=C/c2ccc(C(=O)NC[C@@H]3C[C@@H](Oc4ccc(/C=C/c5ccccc5)cc4)CN3C(=O)c3ccccc3C(=O)c3ccc(F)cc3)cc2)S1 [Compound A-82] | 45 nM | 50 nM
23 | O=C1NC(=O)/C(=C/c2ccc(C(=O)NC[C@@H]3C[C@@H](Oc4ccccc4Cc4ccccc4)CN3C(=O)c3ccccc3C(=O)c3ccc(F)cc3)cc2)S1 [Compound A-83] | 230 nM | 53 nM
24 | O=C1NC(=O)/C(=C/c2ccc(C(=O)NC[C@@H]3C[C@@H](Oc4cccc(-c5ccc6ccccc6c5)c4)CN3C(=O)c3ccccc3C(=O)c3ccc(F)cc3)cc2)S1 [Compound A-84] | 250 nM | 33 nM
25 | O=C1NC(=O)/C(=C/c2ccc(C(=O)NC[C@@H]3C[C@@H](Oc4ccc5ccccc5c4-c4ccccc4)CN3C(=O)c3ccccc3C(=O)c3ccc(F)cc3)cc2)S1 [Compound A-86] | 93 nM | 28 nM
26 | CN(C)c1cccc(O[C@@H]2C[C@@H](CNC(=O)c3ccc(/C=C4\SC(=O)NC4=O)cc3)N(C(=O)c3ccccc3C(=O)c3ccc(F)cc3)C2)c1 [Compound A-87] | 330 nM | 180 nM
27 | CCN(CC)c1cccc(O[C@@H]2C[C@@H](CNC(=O)c3ccc(/C=C4\SC(=O)NC4=O)cc3)N(C(=O)c3ccccc3C(=O)c3ccc(F)cc3)C2)c1 [Compound A-89] | 490 nM | 96 nM
28 | CN(c1ccccc1)c1cccc(O[C@@H]2C[C@@H](CNC(=O)c3ccc(/C=C4\SC(=O)NC4=O)cc3)N(C(=O)c3ccccc3C(=O)c3ccc(F)cc3)C2)c1 [Compound A-91] | 940 nM | 50 nM
29 | O=C1NC(=O)/C(=C/c2ccc(C(=O)NC[C@@H]3C[C@@H](Oc4ccccc4-c4cccc5ccccc45)CN3C(=O)c3ccccc3C(=O)c3ccc(F)cc3)cc2)S1 [Compound A-94] | 1400 nM | 24 nM
30 | O=C1NC(=O)/C(=C/c2ccc(C(=O)NC[C@@H]3C[C@@H](Oc4ccccc4-c4ccc5ccccc5c4)CN3C(=O)c3ccccc3C(=O)c3ccc(F)cc3)cc2)S1 [Compound A-95] | 390 nM | 76 nM
31 | Cc1ccccc1-c1ccccc1O[C@@H]1C[C@@H](CNC(=O)c2ccc(/C=C3\SC(=O)NC3=O)cc2)N(C(=O)c2ccccc2C(=O)c2ccc(F)cc2)C1 [Compound A-97] | 640 nM | 51 nM
32 | COc1cccc(-c2ccccc2O[C@@H]2C[C@@H](CNC(=O)c3ccc(/C=C4\SC(=O)NC4=O)cc3)N(C(=O)c3ccccc3C(=O)c3ccc(F)cc3)C2)c1 [Compound A-98] | 440 nM | 59 nM
33 | O=C1NC(=O)/C(=C/c2ccc(C(=O)NC[C@@H]3C[C@@H](Oc4ccccc4-c4ccc5c(c4)OCO5)CN3C(=O)c3ccccc3C(=O)c3ccc(F)cc3)cc2)S1 [Compound A-101] | 350 nM | 62 nM
34 | O=C1NC(=O)/C(=C/c2ccc(C(=O)NC[C@@H]3C[C@@H](Oc4ccccc4-c4cccc5c4OCO5)CN3C(=O)c3ccccc3C(=O)c3ccc(F)cc3)cc2)S1 [Compound A-102] | 330 nM | 52 nM
35 | O=C1NC(=O)/C(=C/c2ccc(C(=O)NC[C@@H]3C[C@@H](Oc4ccccc4-c4ccccc4-c4ccccc4)CN3C(=O)c3ccccc3C(=O)c3ccc(F)cc3)cc2)S1 [Compound A-103] | 590 nM | 58 nM
